Experimental data taken from ChEMBL document CHEMBL1201862, “PubChem BioAssay data set” (2004).
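These data come from cells grown in 96-well plates and exposed to compound for 48 hours at five concentrations. GI50 is the concentration that inhibits growth by half.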 Calls of active or inactive are those of the source. No stated cut-off is given here; in the data, active = GI50 up to about 1.1 µM and inactive = higher. Starred links: 1 amine or outer side, 2 acyl side, 3 side chain; linkers in the order of their positions; H or OH if unused. Positions of bridges follow the written chain, without caps; N, C: chain ends. Non-standard residues stand in square brackets, D forms with d. Residues, ends and D or L forms follow the SMILES beside them. Chains are numbered I, II in the order given. Actinocin(1to9) = Cc1c2oc3c(C)ccc(C(=O)[*:2])c3nc-2c(C(=O)[*:1])c(N)c1=O; aThr = C[C@H](O)[C@H](N)C(=O)O; NMeV = CN[C@H](C(=O)O)C(C)C; Sar = CNCC(=O)O

Assays:
Assay in all cases: NCI-60 cell line screen, 48 h
SK-MEL-2 = system: SK-MEL-2
HOP-62 = system: HOP-62
SK-MEL-5 = system: SK-MEL-5
U-251 = system: U-251
M14 = system: M14
SF-268 = system: SF-268
SF-539 = system: SF-539
OVCAR-8 = system: OVCAR-8
Malme-3M = system: Malme-3M
OVCAR-3 = system: OVCAR-3
RPMI-8226 = system: RPMI-8226
HL-60 = system: HL-60
NCI-H460 = system: NCI-H460
DLD-1 = system: DLD-1
NCI-H23 = system: NCI-H23
ACHN = system: ACHN
A498 = system: A498
HOP-92 = system: HOP-92
SW-620 = system: SW-620
PC-3 = system: PC-3

Structure (SMILES)	GI50 (SK-MEL-2)	GI50 (HOP-62)	GI50 (SK-MEL-5)	GI50 (U-251)	GI50 (M14)	GI50 (SF-268)	GI50 (SF-539)	GI50 (OVCAR-8)	GI50 (Malme-3M)	GI50 (OVCAR-3)	GI50 (RPMI-8226)	GI50 (HL-60)	GI50 (NCI-H460)	GI50 (DLD-1)	GI50 (NCI-H23)	GI50 (ACHN)	GI50 (A498)	GI50 (HOP-92)	GI50 (SW-620)	GI50 (PC-3)
c1ccc(OCc2nnc3n2N=C(c2ccccc2)CS3)cc1	75.3 µM (inactive)	> 100 µM (inactive)	> 100 µM (inactive)	> 100 µM (inactive)	> 100 µM (inactive)	> 100 µM (inactive)	> 100 µM (inactive)	> 100 µM (inactive)	> 100 µM (inactive)	> 100 µM (inactive)	> 100 µM (inactive)	> 100 µM (inactive)	> 100 µM (inactive)	> 100 µM (inactive)	> 100 µM (inactive)	> 100 µM (inactive)	53.5 µM (inactive)	> 100 µM (inactive)	> 100 µM (inactive)	
Clc1ccc(-c2c(C3=NCCCN3)nnn2-c2ccc(Cl)cc2)cc1	17.4 µM (inactive)	55.5 µM (inactive)	17.7 µM (inactive)	49.8 µM (inactive)	16.7 µM (inactive)	48.8 µM (inactive)	31.4 µM (inactive)	> 70.3 µM (inactive)	17.8 µM (inactive)	> 78.7 µM (inactive)	31.4 µM (inactive)	17.5 µM (inactive)	40.9 µM (inactive)	> 68.9 µM (inactive)	> 79.1 µM (inactive)	> 78.2 µM (inactive)	29.4 µM (inactive)	22.8 µM (inactive)	49.8 µM (inactive)	31.1 µM (inactive)
Nc1ncnc2c(C3OC(CO)C(O)C3O)scc12 (configuration not stated)	0.0431 µM (active)	0.133 µM (active)	0.346 µM (active)	3.78 µM (inactive)	0.00586 µM (active)	1.77 µM (inactive)	4.94 µM (inactive)	0.00179 µM (active)	2.54 µM (inactive)	0.00241 µM (active)	0.00222 µM (active)	< 0.001 µM (active)	0.00615 µM (active)	0.00212 µM (active)	0.152 µM (active)	0.0877 µM (active)	0.0316 µM (active)	0.0117 µM (active)	0.0192 µM (active)	
COc1ccc(-c2nc(N)n(C)c2SSc2c(-c3ccc(OC)cc3)nc(N)n2C)cc1	15.6 µM (inactive)	17.5 µM (inactive)	2.08 µM (inactive)	13 µM (inactive)	2.19 µM (inactive)	12.6 µM (inactive)	4.69 µM (inactive)	5.81 µM (inactive)	9.42 µM (inactive)	7.23 µM (inactive)	2.69 µM (inactive)	2.59 µM (inactive)	20.8 µM (inactive)	4.3 µM (inactive)	5.14 µM (inactive)	3.94 µM (inactive)	7.64 µM (inactive)	2.28 µM (inactive)	2.23 µM (inactive)	6.34 µM (inactive)
N#C/N=C(\N)NCCO	> 100 µM (inactive)	> 100 µM (inactive)	> 100 µM (inactive)	37.2 µM (inactive)	> 100 µM (inactive)	> 100 µM (inactive)	> 100 µM (inactive)	> 100 µM (inactive)	> 100 µM (inactive)	> 100 µM (inactive)	> 100 µM (inactive)	> 100 µM (inactive)	> 100 µM (inactive)	> 100 µM (inactive)	> 100 µM (inactive)	> 100 µM (inactive)	> 100 µM (inactive)	> 100 µM (inactive)	18.3 µM (inactive)	
C/N=c1\ss/c(=N\C(=S)N(C)C)n1C1CCCCC1	> 31.6 µM (inactive)	> 100 µM (inactive)	> 31.6 µM (inactive)	> 31.6 µM (inactive)	> 10 µM (inactive)	> 31.6 µM (inactive)	> 100 µM (inactive)	> 31.6 µM (inactive)	> 31.6 µM (inactive)	> 31.6 µM (inactive)	> 100 µM (inactive)	> 100 µM (inactive)	> 31.6 µM (inactive)	> 100 µM (inactive)	> 31.6 µM (inactive)	> 31.6 µM (inactive)	> 31.6 µM (inactive)	> 10 µM (inactive)	> 31.6 µM (inactive)	
Oc1cc(Cl)ncn1	> 100 µM (inactive)	> 100 µM (inactive)	> 100 µM (inactive)	> 100 µM (inactive)	> 100 µM (inactive)	> 100 µM (inactive)		> 100 µM (inactive)	> 100 µM (inactive)	> 100 µM (inactive)	> 100 µM (inactive)	> 100 µM (inactive)	> 100 µM (inactive)	> 100 µM (inactive)	> 100 µM (inactive)	> 100 µM (inactive)	> 100 µM (inactive)		> 100 µM (inactive)	
NNC(=O)/C(NC(=O)c1ccccc1)=C(\N)c1ccc(Cl)cc1	> 100 µM (inactive)	> 100 µM (inactive)	> 100 µM (inactive)	> 100 µM (inactive)	> 100 µM (inactive)	> 100 µM (inactive)	> 100 µM (inactive)	> 100 µM (inactive)	> 100 µM (inactive)	> 100 µM (inactive)	73.5 µM (inactive)	> 100 µM (inactive)	> 100 µM (inactive)	> 100 µM (inactive)	> 100 µM (inactive)	> 100 µM (inactive)	80.5 µM (inactive)	> 100 µM (inactive)	> 100 µM (inactive)	
c1ccc(C2=NOC3(c4ccccc4)SC4CCCCC4CN23)cc1 (configuration not stated)	31.3 µM (inactive)	38.7 µM (inactive)	15.2 µM (inactive)	15.2 µM (inactive)	21.9 µM (inactive)	22.8 µM (inactive)	18.7 µM (inactive)		29.8 µM (inactive)	39.4 µM (inactive)	22 µM (inactive)	5.4 µM (inactive)	32.6 µM (inactive)	40.5 µM (inactive)	29.8 µM (inactive)	26.2 µM (inactive)	35.5 µM (inactive)	15.9 µM (inactive)	30.6 µM (inactive)	
COc1ccc2c(c1)[n+]([O-])c(-c1ccc(C)cc1)c(N)[n+]2[O-]	40.6 µM (inactive)	> 100 µM (inactive)	35.8 µM (inactive)	54.7 µM (inactive)	52.5 µM (inactive)		86.1 µM (inactive)	66.2 µM (inactive)	76.2 µM (inactive)	31 µM (inactive)	75.5 µM (inactive)	43.9 µM (inactive)	38.3 µM (inactive)	> 100 µM (inactive)	20.9 µM (inactive)	57.4 µM (inactive)	> 100 µM (inactive)	> 100 µM (inactive)	38.4 µM (inactive)	
CC(C)(c1ccc(OC#N)cc1)c1ccc(OC#N)cc1	> 100 µM (inactive)	> 100 µM (inactive)	> 100 µM (inactive)	> 68.5 µM (inactive)	> 100 µM (inactive)	> 66.5 µM (inactive)	> 100 µM (inactive)	> 100 µM (inactive)	> 100 µM (inactive)	> 100 µM (inactive)	> 52.6 µM (inactive)	> 55 µM (inactive)	> 58.7 µM (inactive)	> 56.8 µM (inactive)	> 100 µM (inactive)	> 100 µM (inactive)	> 100 µM (inactive)	> 100 µM (inactive)	> 100 µM (inactive)	
Cc1c2oc3c(C)ccc(C(=O)N[C@@H]4C(=O)N[C@H](C(C)C)C(=O)N5CCC[C@H]5C(=O)N(C)CC(=O)N(C)[C@@H](C(C)C)C(=O)O[C@H]4C)c3nc-2c(C(=O)N[C@@H]2C(=O)N[C@H](C(C)C)C(=O)N3CCC[C@H]3C(=O)N(C)CC(=O)N(C)[C@@H](C(C)C)C(=O)O[C@H]2C)c(N)c1=O (I: [aThr][dV]P[Sar][NMeV] / II: [aThr][dV]P[Sar][NMeV]; ester I:1-I:C, II:1-II:C; linker I:N-II:N via Actinocin(1to9))	0.00106 µM (active)	0.00217 µM (active)	0.00115 µM (active)	0.000611 µM (active)	0.00528 µM (active)	0.00148 µM (active)	0.000899 µM (active)	0.00165 µM (active)	0.00119 µM (active)	0.00361 µM (active)	0.00061 µM (active)	0.00231 µM (active)	0.000424 µM (active)	0.00384 µM (active)	0.00219 µM (active)	0.00371 µM (active)	0.00299 µM (active)	0.00314 µM (active)	0.000489 µM (active)	0.00134 µM (active)
